# Laboratory results as given in ChEMBL document CHEMBL1201862, “PubChem BioAssay data set” (2004).
#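 Compound exposure: 48 hours, 5 concentrations, 96-well plates. GI50: concentration for 50% inhibition of growth.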 The source made the active and inactive calls. No stated cut-off is given here; in the data, active = GI50 up to about 1.1 µM and inactive = higher.
# Columns and labels:
# Experiment in all cases: DTP human tumour cell line panel, 48 h
# KM12 = test system: KM12
# SR = test system: SR
# HCC 2998 = test system: HCC 2998
# K562 = test system: K562
# SK-OV-3 = test system: SK-OV-3
# RXF 631 = test system: RXF 631
# UACC-62 = test system: UACC-62
# CAKI-1 = test system: CAKI-1
# SF-539 = test system: SF-539
# NCI-H23 = test system: NCI-H23
# EKVX = test system: EKVX
# A549 = test system: A549
# DMS-114 = test system: DMS-114
# HOP-92 = test system: HOP-92
# HOP-18 = test system: HOP-18
# NCI-H460 = test system: NCI-H460
# SK-MEL-5 = test system: SK-MEL-5
# RPMI-8226 = test system: RPMI-8226
# DMS-273 = test system: DMS-273
# SF-295 = test system: SF-295
# XF498 = test system: XF498
# IGROV-1 = test system: IGROV-1
# M19-MEL = test system: M19-MEL
# SNB-75 = test system: SNB-75
# LOX IMVI = test system: LOX IMVI
# SN12C = test system: SN12C
# M14 = test system: M14
# HT-29 = test system: HT-29
# 786-0 = test system: 786-0
# ACHN = test system: ACHN
# U-251 = test system: U-251
# HL-60 = test system: HL-60
# OVCAR-5 = test system: OVCAR-5
# HCT-15 = test system: HCT-15
# NCI-H226 = test system: NCI-H226
# UACC-257 = test system: UACC-257
# UO-31 = test system: UO-31
# Malme-3M = test system: Malme-3M
# KM-20L2 = test system: KM-20L2
# RXF 393 = test system: RXF 393
# MOLT-4 = test system: MOLT-4
# LXFL 529 = test system: LXFL 529
# A498 = test system: A498
# HCT-116 = test system: HCT-116
# DLD-1 = test system: DLD-1
# TK-10 = test system: TK-10
# COLO 205 = test system: COLO 205
# SK-MEL-28 = test system: SK-MEL-28
# HOP-62 = test system: HOP-62
# SF-268 = test system: SF-268
# OVCAR-4 = test system: OVCAR-4
# NCI-H522 = test system: NCI-H522
# SW-620 = test system: SW-620
# SNB-19 = test system: SNB-19
# SNB-78 = test system: SNB-78
# OVCAR-3 = test system: OVCAR-3
# OVCAR-8 = test system: OVCAR-8
# CCRF-CEM = test system: CCRF-CEM
# SK-MEL-2 = test system: SK-MEL-2
smiles,measurement,setting,value
O=S(=O)(O)SC/C=C\CSS(=O)(=O)O,GI50,KM12,21.4 µM (inactive)
same,GI50,SR,> 100 µM (inactive)
same,GI50,HCC 2998,> 100 µM (inactive)
same,GI50,K562,> 100 µM (inactive)
same,GI50,SK-OV-3,57.8 µM (inactive)
same,GI50,RXF 631,37.5 µM (inactive)
same,GI50,UACC-62,> 100 µM (inactive)
same,GI50,CAKI-1,> 100 µM (inactive)
same,GI50,SF-539,66.2 µM (inactive)
same,GI50,NCI-H23,> 100 µM (inactive)
same,GI50,EKVX,> 100 µM (inactive)
same,GI50,A549,44.4 µM (inactive)
same,GI50,DMS-114,42.7 µM (inactive)
same,GI50,HOP-92,> 100 µM (inactive)
same,GI50,HOP-18,> 100 µM (inactive)
same,GI50,NCI-H460,42.9 µM (inactive)
same,GI50,SK-MEL-5,> 100 µM (inactive)
same,GI50,RPMI-8226,> 100 µM (inactive)
same,GI50,DMS-273,69.5 µM (inactive)
same,GI50,SF-295,31.3 µM (inactive)
same,GI50,XF498,> 100 µM (inactive)
same,GI50,IGROV-1,> 100 µM (inactive)
same,GI50,M19-MEL,98.9 µM (inactive)
same,GI50,SNB-75,60.4 µM (inactive)
same,GI50,LOX IMVI,24.8 µM (inactive)
same,GI50,SN12C,> 100 µM (inactive)
same,GI50,M14,> 100 µM (inactive)
same,GI50,HT-29,42.3 µM (inactive)
same,GI50,786-0,> 100 µM (inactive)
same,GI50,ACHN,> 100 µM (inactive)
same,GI50,U-251,31.5 µM (inactive)
same,GI50,HL-60,> 100 µM (inactive)
same,GI50,OVCAR-5,> 100 µM (inactive)
same,GI50,HCT-15,> 100 µM
same,GI50,NCI-H226,49.7 µM (inactive)
same,GI50,UACC-257,> 100 µM (inactive)
same,GI50,UO-31,> 100 µM (inactive)
same,GI50,Malme-3M,> 100 µM (inactive)
same,GI50,KM-20L2,> 100 µM (inactive)
same,GI50,RXF 393,> 100 µM (inactive)
same,GI50,MOLT-4,> 100 µM (inactive)
same,GI50,LXFL 529,> 100 µM (inactive)
same,GI50,A498,> 100 µM (inactive)
same,GI50,HCT-116,> 100 µM (inactive)
same,GI50,DLD-1,> 100 µM (inactive)
same,GI50,TK-10,> 100 µM (inactive)
same,GI50,COLO 205,> 100 µM (inactive)
same,GI50,SK-MEL-28,> 100 µM (inactive)
same,GI50,HOP-62,> 100 µM (inactive)
same,GI50,SF-268,48.9 µM (inactive)
same,GI50,OVCAR-4,> 100 µM (inactive)
same,GI50,NCI-H522,> 100 µM (inactive)
same,GI50,SW-620,> 100 µM (inactive)
same,GI50,SNB-19,42.4 µM (inactive)
same,GI50,SNB-78,> 100 µM (inactive)
same,GI50,OVCAR-3,> 100 µM (inactive)
same,GI50,OVCAR-8,> 100 µM (inactive)
COC(=O)C(C(=O)C(N)=O)c1csc(-n2nc(-c3ccccc3)cc2-c2ccccc2)n1 (stereo not given),GI50,KM12,22.6 µM (inactive)
same,GI50,SR,> 10 µM (inactive)
same,GI50,HCC 2998,> 31.6 µM (inactive)
same,GI50,K562,23.8 µM (inactive)
same,GI50,SK-OV-3,> 31.6 µM (inactive)
same,GI50,RXF 631,> 10 µM (inactive)
same,GI50,UACC-62,> 31.6 µM (inactive)
same,GI50,CCRF-CEM,25.1 µM (inactive)
same,GI50,CAKI-1,10.6 µM (inactive)
same,GI50,SF-539,> 31.6 µM (inactive)
same,GI50,NCI-H23,> 100 µM (inactive)
same,GI50,EKVX,13.9 µM (inactive)
same,GI50,A549,> 31.6 µM (inactive)
same,GI50,DMS-114,12.8 µM (inactive)
same,GI50,HOP-92,> 67 µM (inactive)
same,GI50,HOP-18,15.6 µM (inactive)
same,GI50,NCI-H460,> 31.6 µM (inactive)
same,GI50,SK-MEL-5,28.7 µM (inactive)
same,GI50,SK-MEL-2,> 31.6 µM (inactive)
same,GI50,RPMI-8226,> 31.6 µM (inactive)
same,GI50,DMS-273,> 31.6 µM (inactive)
same,GI50,SF-295,> 87.9 µM (inactive)
same,GI50,XF498,25.2 µM (inactive)
same,GI50,IGROV-1,17.3 µM (inactive)
same,GI50,M19-MEL,> 31.6 µM (inactive)
same,GI50,SNB-75,> 31.6 µM (inactive)
same,GI50,LOX IMVI,> 88.1 µM (inactive)
same,GI50,SN12C,> 10 µM (inactive)
same,GI50,M14,> 31.6 µM (inactive)
same,GI50,HT-29,41.9 µM (inactive)
same,GI50,786-0,> 31.6 µM (inactive)
same,GI50,ACHN,> 31.6 µM (inactive)
same,GI50,U-251,24.5 µM (inactive)
same,GI50,HL-60,26.1 µM (inactive)
same,GI50,OVCAR-5,> 100 µM (inactive)
same,GI50,HCT-15,> 31.6 µM
same,GI50,NCI-H226,20.9 µM (inactive)
same,GI50,UACC-257,19.8 µM (inactive)
same,GI50,UO-31,13.5 µM (inactive)
same,GI50,Malme-3M,> 31.6 µM (inactive)
same,GI50,KM-20L2,27.4 µM (inactive)
same,GI50,RXF 393,> 31.6 µM (inactive)
same,GI50,MOLT-4,25.5 µM (inactive)
same,GI50,LXFL 529,> 31.6 µM (inactive)
same,GI50,A498,> 31.6 µM (inactive)
same,GI50,HCT-116,> 31.6 µM (inactive)
same,GI50,DLD-1,> 31.6 µM (inactive)
same,GI50,TK-10,21.5 µM (inactive)
same,GI50,COLO 205,26.8 µM (inactive)
same,GI50,SK-MEL-28,> 31.6 µM (inactive)
same,GI50,HOP-62,> 10 µM (inactive)
same,GI50,SF-268,> 31.6 µM (inactive)
same,GI50,OVCAR-4,> 31.6 µM (inactive)
same,GI50,NCI-H522,27.6 µM (inactive)
same,GI50,SW-620,4.4 µM (inactive)
same,GI50,SNB-19,12.5 µM (inactive)
same,GI50,SNB-78,> 31.6 µM (inactive)
same,GI50,OVCAR-3,43.2 µM (inactive)
same,GI50,OVCAR-8,30.4 µM (inactive)
Cc1cccc(C)c1NC(=O)CCC(=O)NNc1nnc(C)n1N,GI50,KM12,> 100 µM (inactive)
same,GI50,SR,> 100 µM (inactive)
same,GI50,HCC 2998,> 100 µM (inactive)
same,GI50,K562,> 100 µM (inactive)
same,GI50,SK-OV-3,> 100 µM (inactive)
same,GI50,RXF 631,> 100 µM (inactive)
same,GI50,UACC-62,> 100 µM (inactive)
same,GI50,CCRF-CEM,> 100 µM (inactive)
same,GI50,CAKI-1,> 100 µM (inactive)
same,GI50,SF-539,> 100 µM (inactive)
same,GI50,NCI-H23,> 100 µM (inactive)
same,GI50,EKVX,> 100 µM (inactive)
same,GI50,A549,> 100 µM (inactive)
same,GI50,DMS-114,> 100 µM (inactive)
same,GI50,HOP-92,> 100 µM (inactive)
same,GI50,HOP-18,> 100 µM (inactive)
same,GI50,NCI-H460,> 100 µM (inactive)
same,GI50,SK-MEL-5,> 100 µM (inactive)
same,GI50,SK-MEL-2,> 100 µM (inactive)
same,GI50,RPMI-8226,> 100 µM (inactive)
same,GI50,DMS-273,> 100 µM (inactive)
same,GI50,SF-295,> 100 µM (inactive)
same,GI50,XF498,> 100 µM (inactive)
same,GI50,IGROV-1,> 100 µM (inactive)
same,GI50,M19-MEL,> 100 µM (inactive)
same,GI50,SNB-75,> 100 µM (inactive)
same,GI50,LOX IMVI,> 100 µM (inactive)
same,GI50,SN12C,> 100 µM (inactive)
same,GI50,M14,> 100 µM (inactive)
same,GI50,HT-29,> 100 µM (inactive)
same,GI50,786-0,> 100 µM (inactive)
same,GI50,ACHN,> 100 µM (inactive)
same,GI50,U-251,> 100 µM (inactive)
same,GI50,HL-60,> 100 µM (inactive)
same,GI50,OVCAR-5,> 100 µM (inactive)
same,GI50,HCT-15,> 100 µM
same,GI50,NCI-H226,> 100 µM (inactive)
same,GI50,UACC-257,> 100 µM (inactive)
same,GI50,UO-31,> 100 µM (inactive)
same,GI50,Malme-3M,> 100 µM (inactive)
same,GI50,KM-20L2,> 100 µM (inactive)
same,GI50,RXF 393,> 100 µM (inactive)
same,GI50,MOLT-4,> 100 µM (inactive)
same,GI50,LXFL 529,> 100 µM (inactive)
same,GI50,A498,53.3 µM (inactive)
same,GI50,HCT-116,> 100 µM (inactive)
same,GI50,DLD-1,> 100 µM (inactive)
same,GI50,TK-10,> 100 µM (inactive)
same,GI50,COLO 205,> 100 µM (inactive)
same,GI50,SK-MEL-28,> 100 µM (inactive)
same,GI50,HOP-62,> 100 µM (inactive)
same,GI50,SF-268,> 100 µM (inactive)
same,GI50,OVCAR-4,> 100 µM (inactive)
same,GI50,NCI-H522,> 100 µM (inactive)
same,GI50,SW-620,> 100 µM (inactive)
same,GI50,SNB-19,> 100 µM (inactive)
same,GI50,SNB-78,> 100 µM (inactive)
same,GI50,OVCAR-3,> 100 µM (inactive)
same,GI50,OVCAR-8,> 100 µM (inactive)
